# Tests used:
# MMP-2 = target: T1, MMP-2 (Homo sapiens, UniProt P08253); assay: K(obs) of individual phage substrates (set of 1369); format: biochemical; conditions: MMP2; individual phage substrate from the set of 1369 peptides; hyphen in the sequence marks the cleavage position
# T1 sequence (P08253 110-660): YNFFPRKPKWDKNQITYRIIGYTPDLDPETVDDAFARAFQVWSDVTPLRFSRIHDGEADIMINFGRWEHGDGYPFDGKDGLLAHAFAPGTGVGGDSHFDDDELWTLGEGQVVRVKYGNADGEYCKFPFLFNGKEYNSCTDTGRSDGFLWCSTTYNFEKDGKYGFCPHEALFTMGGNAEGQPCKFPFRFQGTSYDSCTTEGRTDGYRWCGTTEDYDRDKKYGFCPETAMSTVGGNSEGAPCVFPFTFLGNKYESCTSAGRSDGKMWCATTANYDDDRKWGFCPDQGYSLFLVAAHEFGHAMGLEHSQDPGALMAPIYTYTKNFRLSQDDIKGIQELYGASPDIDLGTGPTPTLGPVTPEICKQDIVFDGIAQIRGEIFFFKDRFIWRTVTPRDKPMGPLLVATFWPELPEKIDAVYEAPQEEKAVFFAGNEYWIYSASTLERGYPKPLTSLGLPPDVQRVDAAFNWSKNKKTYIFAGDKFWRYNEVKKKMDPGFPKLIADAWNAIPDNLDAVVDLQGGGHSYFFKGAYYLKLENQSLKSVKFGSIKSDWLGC
# MMP-9 [1] = assay: Substrate phage display with NGS: relative probability (RP) of P3-P1' tetramer clusters; format: biochemical, human; conditions: MMP9; RP of the substrate's P3-P1' tetramer, substrate phage display with NGS;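 further: ratio of tetramer probability after protease selection to that in naive phage library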
# MMP-9 [2] = target: MMP-9 (Homo sapiens, UniProt P14780); assay: K(obs) of individual phage substrates (set of 1369); format: biochemical; conditions: MMP9; individual phage substrate of the set of 1369 peptides; dash in sequence marks cleavage position
# Sequence of MMP-9 (Homo sapiens, UniProt P14780) (P14780 94-707): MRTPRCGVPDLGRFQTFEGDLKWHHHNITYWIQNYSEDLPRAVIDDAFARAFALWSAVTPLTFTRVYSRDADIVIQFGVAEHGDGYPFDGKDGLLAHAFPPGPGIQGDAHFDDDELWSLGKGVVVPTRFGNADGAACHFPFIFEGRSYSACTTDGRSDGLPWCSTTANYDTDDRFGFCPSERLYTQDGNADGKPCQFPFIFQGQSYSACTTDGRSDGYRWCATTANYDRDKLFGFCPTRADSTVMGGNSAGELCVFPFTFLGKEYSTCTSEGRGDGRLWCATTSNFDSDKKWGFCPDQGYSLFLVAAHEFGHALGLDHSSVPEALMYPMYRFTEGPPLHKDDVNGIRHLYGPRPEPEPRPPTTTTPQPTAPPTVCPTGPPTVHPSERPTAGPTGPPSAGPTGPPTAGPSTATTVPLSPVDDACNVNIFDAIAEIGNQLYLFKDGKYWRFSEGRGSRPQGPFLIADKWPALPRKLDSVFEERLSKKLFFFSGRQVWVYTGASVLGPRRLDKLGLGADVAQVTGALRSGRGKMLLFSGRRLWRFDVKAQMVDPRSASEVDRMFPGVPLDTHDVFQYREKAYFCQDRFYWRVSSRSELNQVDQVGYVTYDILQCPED
Substance,Kobs (MMP-2) [M⁻¹ s⁻¹],Kobs (MMP-9 [2]) [M⁻¹ s⁻¹],relative probability (RP) (MMP-9 [1])
MSLAT-LTASG,12792.1,0,0.7406
IMHRA-LTASG,12792.1,9740.44,18.7073
LGPSH-YTASG,12792.1,12792.1,38.4805
FAPAE-VTASG,12792.1,3438.54,5.593
VLLGN-FTASG,12792.1,690.17,0.6963
TMLLA-LTASG,12792.1,654.784,6.729
SGISW-MRHTA,7815.03,2476.66,21.4
KGPSG-LTASG,12792.1,10866.7,47.388
SGPRN-YHGTA,12792.1,12792.1,46.9938
SKPWK-LTASG,1561.44,12792.1,43.1496
GVLRN-LITAS,12792.1,6688.74,37.603
GMPLL-LRTAS,8321.48,12792.1,32.5638
SGAYN-FQATA,3438.54,12792.1,19.0941
MGPWF-MTASG,0,9740.44,35.6409
SGPKQ-LRVTA,12792.1,12792.1,43.3387
NIPTR-LTASG,12792.1,1327.88,15.5872
GNPAQ-MRTAS,12792.1,7015.91,38.7952
GMPGR-LSTAS,7015.91,517.582,29.3451
VKPSG-VTASG,12792.1,12792.1,31.8733
GGIAA-MRTAS,1071.29,386.839,10.5791
MALSS-LTASG,7015.91,0,4.987
RRPVA-YTASG,12792.1,12792.1,47.2844
KQLAS-LTASG,12792.1,690.17,2.45
LQLAL-YTASG,12792.1,912.511,1.077
KMPST-LTASG,12792.1,6396.07,36.3405
SGVRW-STSTA,1071.29,7015.91,18.5117
SGVRS-ITWTA,261.974,3637.04,25.6748
SGPRG-VTVTA,12792.1,12792.1,42.1832
RDLGF-LTASG,12792.1,0,3.437

# Further lines, with some results ahead:
Kobs (MMP-2) [M⁻¹ s⁻¹],Kobs (MMP-9 [2]) [M⁻¹ s⁻¹],Substance,relative probability (RP) (MMP-9 [1])
12792.1,12792.1,LIPTS-LTASG,31.9505
12792.1,12792.1,SGPRQ-LSTTA,43.5363
1816.46,12792.1,KHPYK-YTASG,33.5853
12792.1,7015.91,SGVAG-LYSTA,21.512
12792.1,5090.5,SGPGA-MMFTA,36.3159
6131.32,12792.1,RQPRN-VTASG,40.3866
8941.32,1239.69,VYPGK-MTASG,16.9669
12792.1,2344.36,SGPAS-FSVTA,30.2578
12792.1,5269.78,SVPST-LTASG,36.3405
1373.05,1561.44,SCVRM-MTASG,24.5728
12792.1,4205.91,SGVAW-LKHTA,35.286
5461.43,12792.1,NGPYN-LTASG,49.1716
12792.1,12792.1,VVPNN-LTASG,38.7188
6396.07,1981.53,HVVAK-MTASG,0.5992
12792.1,12792.1,YKPVY-YTASG,30.5191
12792.1,12792.1,GLPAA-LTTAS,47.6262
12792.1,451.441,STIAH-YTASG,10.3185
12792.1,12792.1,YGPSL-LTASG,32.4935
12792.1,9740.44,SGPAS-LLNTA,46.2982
12792.1,951.362,MGLAN-LTASG,11.5381
12792.1,142.481,SQLGL-LTASG,4.41
451.441,6131.32,FIPMW-STASG,27.7553
12792.1,12792.1,SGPRD-ILATA,41.2501
4922.1,551.253,WAINA-LTASG,1.369
2996.69,113.394,EHPGL-LTASG,19.6268
2097.28,12792.1,KFPWN-YTASG,48.0713

# Reference: PMC7932537, “Quantitative profiling of protease specificity” (PLoS Computational Biology, 2021)
